# Where two headings read alike, the source gives them in different places.
# Tests used:
# [1] = tested on: HIV-1 infection of TZM-bl cells; assay: HIV-1 infectivity enhancement assay, β-galactosidase luminescence; format: cell-based; conditions: for Rel-EFC / Log10 Infection Rel EFC: 1.3 µM peptide; for Rel-EFC: infection relative to EF-C (QCKIKQIINMWQ = 1); for Log10 Infection Rel EFC: log10 of infection relative to EF-C; for Log Infectivity: Fig. S7 panel A (plotted against β-sheet content), Log10 infection relative to EF-C, TZM-bl cells, asymmetric std dev errors; for Log10 Infection Rel EF-C: HIV-1 infection of TZM-bl cells; for Log10 of Rel to EFC (Feb2021): Log10 of infection relative to EF-C, all peptides of FigS16; for Abs. Inf.: absolute infection signal, HIV-1 on TZM-bl cells, β-galactosidase luminescence; for Log10 Inf. rel. to EF-C: log10 of HIV-1 infection of TZM-bl cells relative to EF-C (EF-C = 0)
# [2] = format: physicochemical; design: key to Fibril / Fibril Formation / TEM 2cat / Fibril: 1 = fibrils present; 0 non-fibrillar structures; conditions: for Fibril / Fibril Formation / Fibril: TEM; for Fibril / Fibril Formation: 1 mg/mL, uranyl acetate stain, qualitative
# [3] = β-sheet content by ATR-FT-IR; format: physicochemical; conditions: Fig. S7 panel A; β-sheet content by ATR-FT-IR
# Method in brief: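 Fluorescence at 470 nm (365 nm excitation) was read 20 min after adding fluorescamine to DMSO-dissolved filtrate and unfiltered PNF, then CR computed as 100 − 100 × filtrate/original. Secondary structure came from ATR FT-IR spectra of lyophilized PNF powder.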
# [4] = Zeta-potential measurement; format: physicochemical
# Method in brief: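 Surface charge of aggregated peptides: 1 mg/mL solutions in PBS (pH 7.4) incubated 1 d at RT, diluted into 1 mM KCl just before reading. Electrophoretic mobility converted to zeta potential by the Smoluchowski formula; triplicate measurements from two separate experiments averaged.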
# [5] = Turbidity, derived count rate of scattered light; format: physicochemical; conditions: for Count Rate: derived count rate of scattered light (turbidity); for Log10 Count Rate: turbidity, derived count rate of scattered light, data of Figure 2D
# [6] = Log10 of infection rate relative to EF-C, Figure 3A source data
# [7] = infection rate relative to EF-C, log10, data of Figure 2D
# [8] = infection rate relative to EF-C, log10, source data of Figure 2C
# [9] = 1 = fibrils present, 0 = non-fibrillar
# [10] = 1 = fibrils present, 0 = non-fibrillar structures
# [11] = category: fibrils present or non-fibrillar
# [12] = zeta-potential of peptide, source data of Figure 2C
# [13] = zeta-potential of the peptide assemblies, mean, Figure 3A source data
# [14] = FigS12 panel A, fibril category by TEM
# [15] = zeta potential of peptide assemblies
Substance,Rel-EFC [1],Log10 Infection Rel EFC [1],Log Infectivity [1],"Log10 Infection Rel EF-C [1, 6]","Log10 Infection Rel EF-C [1, 7]","Log10 Infection Rel EF-C [1, 8]",Abs. Inf. [1],Log10 Inf. rel. to EF-C [1],TEM 2cat ([2]; Fig S10 panel D),Fibril / Fibril Formation [2],"Fibril [2, 9]","Fibril [2, 10]",b -sheet / % [3],"Zeta-Potential / mV [4, 12]","Zeta-Potential / mV [4, 13]",Count Rate [5],Log10 Count Rate [5],"TEM 2cat [2, 14]",Fibril ([2]; FigS12 panel B),"Zeta-Pot. [4, 15]",further results
QCKIKQIINM,"0,35","-0,46",-0.4555,-0.46,-0.4555,-0.4555,11186.66667,-0.4555,1,1,1,1,38.44%,9.992 mV,10.4 mV,20551.06667,4.313,,,,"Log10 of Rel to EFC (Feb2021) [1]: -0.46; TEM 2cat [2, 11]: 1; Zeta-Pot. [4]: 10.4"
CEFEFQF,"0,01","-2,28",-2.283,-2.28,-2.283,-2.283,,,1,1,1,1,53%,-10.825 mV,-13.7 mV,367.4,2.565,1,1,-13.7,
HGEHGE,"0,01","-2,19",-2.193,-2.19,-2.193,-2.193,140,-2.193,0,0,0,0,9.5428%,-8.73 mV,-12.6 mV,240.6,2.381,0,0,,Zeta-Pot. [4]: -12.6
NMWQKIKIQI,"0,21","-0,69",-0.6877,-0.69,-0.6877,-0.6877,,-0.6877,1,1,1,1,39.24%,7.36 mV,8.26 mV,10024.06667,4.001,,,8.26,"Log10 of Rel to EFC (Feb2021) [1]: -0.69; TEM 2cat [2, 11]: 1"
KNDKND,"0,01","-1,98",-1.978,-1.98,-1.978,-1.978,230,-1.978,0,0,0,0,43.2531%,-11.85 mV,-15 mV,52.4,1.719,0,0,,Zeta-Pot. [4]: -15
CKWKWQW,"0,25","-0,6",-0.5951,-0.6,-0.5951,-0.5951,,,1,1,1,1,34.2%,16.02 mV,14.7 mV,7511,3.876,,,14.7,"Log10 of Rel to EFC (Feb2021) [1]: -0.6; TEM 2cat [2, 11]: 1"
FKFDKFKFDK,"0,05","-1,33",-1.334,-1.33,-1.334,-1.334,513.3,-1.334,0,0,0,0,46.64%,-8.027 mV,-12.7 mV,45.13,1.6545,0,0,,Zeta-Pot. [4]: -12.7
KWKWQW,"0,01","-1,84",-1.838,-1.84,-1.838,-1.838,,,0,0,0,0,30.47%,3.331 mV,7.55 mV,1545,3.189,0,0,7.55,
KIKIQIN,"0,27","-0,58",-0.5766,-0.58,-0.5766,-0.5766,,-0.5766,1,1,1,1,41.82%,4.4 mV,3.34 mV,43.43,1.638,,,3.34,"Log10 of Rel to EFC (Feb2021) [1]: -0.58; TEM 2cat [2, 11]: 1"
KIKIQIAMWQ,"0,39","-0,41",-0.4109,-0.41,-0.4109,-0.4109,,-0.4109,1,1,1,1,37.48%,13.33 mV,11.3 mV,540.9,2.733,,,11.3,"Log10 of Rel to EFC (Feb2021) [1]: -0.41; TEM 2cat [2, 11]: 1"
EFEFQF,0,"-2,49",-2.485,-2.49,-2.485,-2.485,,,0,0,0,0,44.93%,-14.88 mV,-24.5 mV,405.4,2.608,0,0,-24.5,
TKTLTKTL,"0,02","-1,67",-1.671,-1.67,-1.671,-1.671,316.7,-1.671,0,0,0,0,34.38%,-13.63 mV,-25.1 mV,514.6,2.711,0,0,,Zeta-Pot. [4]: -25.1
PPFHPPPFHP,"0,02","-1,75",-1.751,-1.75,-1.751,-1.751,263.3,-1.751,0,0,0,0,46.6563%,-9.582 mV,-15.8 mV,59.13,1.772,0,0,,Zeta-Pot. [4]: -15.8

# From article PMC10447463, “Data-mining unveils structure–property–activity correlation of viral infectivity enhancing self-assembling peptides” (Nature Communications, 2023)
